From ChEMBL document CHEMBL1649540, “The novel CXCR4 antagonist KRH-3955 is an orally bioavailable and extremely potent inhibitor of human immunodeficiency virus type 1 infection: comparative studies with AMD3100” (Antimicrob Agents Chemother, 2009)
The source made the active and inactive calls. The calls are words filed in the database; no cut-off is given here.

Columns and labels:
[1] = Tmax in Sprague-Dawley rat at 10 mg/kg, po administered as single dose; conditions: in vivo
[2] = biological target: C-C chemokine receptor type 4 (Homo sapiens) (UniProt P51679); experiment: Displacement of [125I]TARC form CCR4 expressed in CHO cells by scintillation counting; format: cell-based
Chain of C-C chemokine receptor type 4 (Homo sapiens) (P51679 whole entry): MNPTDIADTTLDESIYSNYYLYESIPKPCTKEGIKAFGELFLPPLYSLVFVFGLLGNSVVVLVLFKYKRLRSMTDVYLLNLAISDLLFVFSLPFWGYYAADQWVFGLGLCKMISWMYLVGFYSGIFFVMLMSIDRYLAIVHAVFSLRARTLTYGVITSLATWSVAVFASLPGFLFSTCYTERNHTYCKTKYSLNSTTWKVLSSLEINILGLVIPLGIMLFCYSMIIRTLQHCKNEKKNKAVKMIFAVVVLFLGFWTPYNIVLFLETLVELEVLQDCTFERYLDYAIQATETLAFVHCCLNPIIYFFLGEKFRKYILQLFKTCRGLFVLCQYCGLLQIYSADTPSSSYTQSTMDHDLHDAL

[3] = biological target: T1, C-X-C chemokine receptor type 4 (Homo sapiens, UniProt P61073); experiment: Inhibition of Mab 12G5 binding to CXCR4 expressed in human MOLT4 cells at 10 nM by FACS analysis; format: cell-based; conditions: MOLT-4
T1 sequence (P61073 whole entry): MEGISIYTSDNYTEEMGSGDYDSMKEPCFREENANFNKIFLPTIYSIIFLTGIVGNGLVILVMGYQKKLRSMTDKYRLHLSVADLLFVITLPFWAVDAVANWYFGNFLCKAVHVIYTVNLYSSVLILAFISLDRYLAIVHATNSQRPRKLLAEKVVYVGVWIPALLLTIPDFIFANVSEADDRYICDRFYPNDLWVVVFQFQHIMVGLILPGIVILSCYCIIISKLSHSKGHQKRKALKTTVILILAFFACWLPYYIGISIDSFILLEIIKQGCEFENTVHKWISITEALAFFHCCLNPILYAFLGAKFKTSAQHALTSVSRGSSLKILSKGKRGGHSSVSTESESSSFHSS

[4] = tested on: Human immunodeficiency virus 1; experiment: Antiviral activity against HIV1 R5 infected in human PBMC assessed as inhibition of viral p24 antigen production after 7 to 10 days by ELISA; format: functional, organism-based; conditions: Human immunodeficiency virus 1, R5
[5] = tested on: C-X-C chemokine receptor type 4 (Homo sapiens), P61073 [H113A]; conditions: HEK293
Chain of C-X-C chemokine receptor type 4 (Homo sapiens), P61073 [H113A] (P61073 whole entry H113A): as the sequence (P61073 whole entry) above, with H113A counted along it

[6] = biological target: T1, C-X-C chemokine receptor type 4; experiment: Inhibition of Mab A145 binding to CXCR4 expressed in human MOLT4 cells at 0.1 to 1000 nM by FACS analysis; format: cell-based; conditions: MOLT-4
[7] = biological target: C-X-C chemokine receptor type 4 (Homo sapiens, UniProt P61073, E288A/L290A)
Chain of C-X-C chemokine receptor type 4 (Homo sapiens, UniProt P61073, E288A/L290A) (P61073 whole entry E288A/L290A): as the sequence (P61073 whole entry) above, with E288A, L290A counted along it

[8] = biological target: T1, C-X-C chemokine receptor type 4; experiment: Inhibition of Mab 12G5 binding to CXCR4 expressed in human MOLT4 cells at 10 nM measured after 6 hrs post drug washout by FACS analysis; format: cell-based; conditions: MOLT-4
[9] = biological target: T1, C-X-C chemokine receptor type 4; experiment: Inhibition of Mab 12G5 binding to CXCR4 expressed in human MOLT4 cells at 10 nM measured post drug washout by FACS analysis; format: cell-based; conditions: MOLT-4
[10] = tested on: C-X-C chemokine receptor type 4 (Homo sapiens), P61073 [W283A]; conditions: HEK293
Chain of C-X-C chemokine receptor type 4 (Homo sapiens), P61073 [W283A] (P61073 whole entry W283A): as the sequence (P61073 whole entry) above, with W283A counted along it

[11] = tested on: Human immunodeficiency virus 1; experiment: Antiviral activity against PI-resistant HIV1 HXB2 infected in HEK293 cells assessed as inhibition of viral replication after 2 days; format: functional, organism-based; conditions: Human immunodeficiency virus 1, HXB2, HEK293, 48 h
[12] = tested on: Human immunodeficiency virus 1; experiment: Antiviral activity against HIV1 A018G infected in human PBMC assessed as inhibition of viral p24 antigen production after 7 to 10 days by ELISA; format: functional, organism-based; conditions: Human immunodeficiency virus 1, A018G
[13] = biological target: C-X-C chemokine receptor type 4 (Homo sapiens, UniProt P61073, E277A)
Chain of C-X-C chemokine receptor type 4 (Homo sapiens, UniProt P61073, E277A) (P61073 whole entry E277A): as the sequence (P61073 whole entry) above, with E277A counted along it

[14] = biological target: C-X-C chemokine receptor type 4 (Homo sapiens, UniProt P61073, D181A); experiment: (§1) Inhibition of Mab 12G5 binding to CXCR4 D181A mutant expressed in HEK293 cells; format: cell-based
Chain of C-X-C chemokine receptor type 4 (Homo sapiens, UniProt P61073, D181A) (P61073 whole entry D181A): as the sequence (P61073 whole entry) above, with D181A counted along it

[15] = tested on: C-X-C chemokine receptor type 4 (Homo sapiens), P61073 [D181A]; experiment: as §1; format: cell-based
Chain of C-X-C chemokine receptor type 4 (Homo sapiens), P61073 [D181A] (P61073 whole entry D181A): as the sequence (P61073 whole entry) above, with D181A counted along it

[16] = biological target: T1, C-X-C chemokine receptor type 4; experiment: Displacement of [125I]SDF-1alpha form CXCR4 expressed in CHO cells by scintillation counting; format: cell-based
[17] = biological target: T1, C-X-C chemokine receptor type 4; experiment: Inhibition of Mab A80 binding to CXCR4 expressed in human MOLT4 cells by FACS analysis; format: cell-based; conditions: MOLT-4
[18] = tested on: C-X-C chemokine receptor type 4 (Homo sapiens), P61073 [E275A]; experiment: (§2) Inhibition of Mab 12G5 binding to CXCR4 E275A mutant expressed in HEK293 cells; format: cell-based
Chain of C-X-C chemokine receptor type 4 (Homo sapiens), P61073 [E275A] (P61073 whole entry E275A): as the sequence (P61073 whole entry) above, with E275A counted along it

[19] = biological target: C-X-C chemokine receptor type 4 (Homo sapiens, UniProt P61073, E275A); experiment: as §2; format: cell-based
Chain of C-X-C chemokine receptor type 4 (Homo sapiens, UniProt P61073, E275A) (P61073 whole entry E275A): as the sequence (P61073 whole entry) above, with E275A counted along it

[20] = biological target: C-X-C chemokine receptor type 4 (Homo sapiens, UniProt P61073, H113A)
Chain of C-X-C chemokine receptor type 4 (Homo sapiens, UniProt P61073, H113A) (P61073 whole entry H113A): as the sequence (P61073 whole entry) above, with H113A counted along it

[21] = biological target: C-X-C chemokine receptor type 4 (Homo sapiens, UniProt P61073, D262A)
Chain of C-X-C chemokine receptor type 4 (Homo sapiens, UniProt P61073, D262A) (P61073 whole entry D262A): as the sequence (P61073 whole entry) above, with D262A counted along it

[22] = AUC (0 to 336 hrs) in Sprague-Dawley rat at 10 mg/kg, po administered as single dose; format: ADME, organism-based; set-up: time < 336 hr, dose 10 mg/kg, route oral; conditions: plasma
[23] = Volume of distribution at steady state in Sprague-Dawley rat at 10 mg/kg, iv administered as single dose; format: ADME, organism-based; set-up: dose 10 mg/kg, route intravenous; conditions: in vivo
[24] = biological target: C-X-C chemokine receptor type 4 (Homo sapiens, UniProt P61073, H203A); experiment: (§3) Inhibition of Mab 12G5 binding to CXCR4 H203A mutant expressed in HEK293 cells; format: cell-based
Chain of C-X-C chemokine receptor type 4 (Homo sapiens, UniProt P61073, H203A) (P61073 whole entry H203A): as the sequence (P61073 whole entry) above, with H203A counted along it

[25] = tested on: C-X-C chemokine receptor type 4 (Homo sapiens), P61073 [H203A]; experiment: as §3; format: cell-based
Chain of C-X-C chemokine receptor type 4 (Homo sapiens), P61073 [H203A] (P61073 whole entry H203A): as the sequence (P61073 whole entry) above, with H203A counted along it

[26] = tested on: C-X-C chemokine receptor type 4 (Homo sapiens), P61073 [E288A,L290A]; conditions: HEK293
Chain of C-X-C chemokine receptor type 4 (Homo sapiens), P61073 [E288A,L290A] (P61073 whole entry E288A/L290A): as the sequence (P61073 whole entry) above, with E288A, L290A counted along it

[27] = tested on: Human immunodeficiency virus 1; experiment: Antiviral activity against HIV1 89.6 infected in human PBMC assessed as inhibition of viral p24 antigen production after 7 to 10 days by ELISA; format: functional, organism-based; conditions: Human immunodeficiency virus 1, 89.6

CCCN(CCC)CCCCN(C)Cc1ccc(CN(Cc2ncc[nH]2)Cc2nccn2C)cc1.O=C(O)C(O)C(O)C(=O)O
Tmax [1]: 2.3 h | Activity [2]: inactive | inhibition [3]: Active | EC50 [4]: > 200 nM | IC90 [5]: 6.3 nM | inhibition [6]: inactive | IC50 [7]: 1.6 nM | inhibition [8]: 40% | inhibition [9]: Active | IC90 [10]: 6.9 nM | IC50 [11]: 0.7 nM | EC50 [12]: 1.3 nM | IC50 [13]: 3.1 nM | IC50 [14]: 0.5 nM | IC90 [15]: 5.1 nM | Activity [16]: Dose-dependent effect | IC50 [16]: 0.61 nM | inhibition [17]: Dose-dependent effect | IC90 [18]: 6.4 nM | IC50 [19]: 1 nM | IC50 [20]: 0.8 nM | IC50 [21]: 1.6 nM | AUC(0-t) at 336 h [22]: 325 ng·h/mL | Vd [23]: 374 L/kg | IC50 [24]: 0.5 nM | IC90 [25]: 5.3 nM | IC90 [26]: 7.7 nM | EC50 [27]: 0.38 nM
